Some test systems named below: DLD-1; DMS-114; DMS-273; KM-20L2; M19-MEL; SNB-78; XF498; HOP-18; RXF 631.
Holding throughout (assay): DTP human tumour cell line panel, 48 h

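1) Cells in 96-well plates. 2) Compound, 48 h, 5 concentrations. 3) Linear interpolation between surrounding doses. 4) Unreached endpoint = highest concentration. GI50 is the concentration that inhibits growth by half.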 Activity calls are given as the source filed them. No stated cut-off is given here; in the data, active = GI50 up to about 1.1 µM and inactive = higher.

Broadly, the GI50 is the concentration at which growth is held to half of that of the control.

Turning to `CC1(c2ccc(F)cc2)C2C(=O)NC(=O)C1C(=O)NC2=O` (stereo not drawn), the GI50 in the test with DLD-1, with DMS-114, in the test on DMS-273, with KM-20L2, in the test on M19-MEL and in the test with SNB-78 was > 100 µM (inactive) throughout. For the same molecule, the GI50 in the test on XF498 was > 100 µM (inactive).

For the molecule `COC(=O)CCC(NC(=S)N/N=C(\C)c1cnc2ccccc2n1)C(=O)OC` (stereo not drawn), the GI50 in the test on DLD-1 was 29 µM (inactive); in the test on DMS-273, 38.5 µM (inactive); in the test with HOP-18 it was 39.4 µM (inactive); with KM-20L2 it was 15.5 µM (inactive); with RXF 631, 52.6 µM (inactive); in the test on SNB-78 it was > 100 µM (inactive). In addition, the GI50 in the test with XF498 was > 100 µM (inactive).

`Cc1ccc(Oc2ccc(C)cc2N)cc1`: the GI50 is 66.1 µM (inactive) with DLD-1; 49.4 µM (inactive) in the test on DMS-114; 75 µM (inactive) with DMS-273; > 100 µM (inactive) in the test on HOP-18; > 100 µM (inactive) in the test with KM-20L2; > 100 µM (inactive) in the test on M19-MEL. Further, in the test with SNB-78, the GI50 was 75.5 µM (inactive).

Consider `CC1=NN(C(=O)Cc2ccccc2)C(=O)/C1=C\c1ccco1`, for which the GI50 in the test with DLD-1, with DMS-114, in the test on DMS-273, with HOP-18, in the test on M19-MEL and in the test on SNB-78 was > 100 µM (inactive) each time. For the same molecule, in the test on XF498, the GI50 is > 100 µM (inactive).

With `CCOP(=O)(OCC)C(C(=O)OC)C(=O)C(=O)Nc1c(C)cc(Br)cc1C` (stereo not drawn), the GI50 is > 100 µM (inactive) with DLD-1; > 100 µM (inactive) in the test with DMS-114; > 100 µM (inactive) in the test with DMS-273; 49.7 µM (inactive) with HOP-18; > 100 µM (inactive) in the test with KM-20L2; > 100 µM (inactive) with M19-MEL. The GI50 in the test on RXF 631, with SNB-78 and with XF498 was > 100 µM (inactive) throughout.

Consider `COc1ccc(C(=O)Cc2c(C(=O)c3ccccc3)c3ccccc3n2C(=O)c2ccccc2)cc1`, for which the GI50 with DLD-1 was 74 µM (inactive); in the test with DMS-114, 50.7 µM (inactive); in the test on DMS-273, 5.38 µM (inactive); in the test with KM-20L2, > 100 µM (inactive); in the test with M19-MEL, > 100 µM (inactive); in the test on XF498, > 100 µM (inactive).

On to `Cc1ccc(C(=O)N(C(C)C)C(C)C)cc1/N=N/N(C)C`, for which the GI50 with DLD-1 is 77.4 µM (inactive); with DMS-273, > 100 µM (inactive); in the test with KM-20L2, > 100 µM (inactive); with M19-MEL, > 100 µM (inactive); in the test on SNB-78 it was 35.9 µM (inactive).

With `COCCOCOC(CCCCO)c1cc(C)c(O[Si](C)(C)C(C)(C)C)c(C)c1` (stereo not drawn), the GI50 with DMS-114 was 2.47 µM (inactive); with HOP-18 it was 16.9 µM (inactive); in the test on KM-20L2, 4.72 µM (inactive); in the test on M19-MEL, 5.11 µM (inactive).

For the molecule `BrC1(Br)C2/C=C\CCCCC21` (stereo not drawn), the GI50 in the test on DMS-273, with HOP-18, with KM-20L2, with M19-MEL, with SNB-78 and in the test with XF498 was > 100 µM (inactive) each time.

As to `O=C(Cc1ccccc1)N/N=C(\C1=Nc2ccc([N+](=O)[O-])cc2NC1O)C(O)c1ccc([N+](=O)[O-])cc1` (stereo not drawn), the GI50 with DLD-1, in the test with HOP-18, with KM-20L2, in the test on M19-MEL, with RXF 631 and in the test with SNB-78 was > 100 µM (inactive) each time. The GI50 in the test on XF498 was > 100 µM (inactive).

With `COC(=O)C(=O)C(C(C)=O)C(=O)NCc1ccccc1` (stereo not drawn), the GI50 with DLD-1, in the test on DMS-114, in the test with DMS-273, in the test with HOP-18, with KM-20L2 and with M19-MEL was > 100 µM (inactive) each time. For the same molecule, the GI50 in the test on SNB-78 and in the test with XF498 was > 100 µM (inactive) each time.

For the molecule `Cc1cc(N(CCC#N)CCC#N)ccc1/C=C1N=C(/C=C/c2ccccc2)N(c2ccc(S(N)(=O)=O)cc2)C\1=O`, the GI50 in the test on DLD-1, in the test with DMS-114, with KM-20L2, in the test with M19-MEL, with RXF 631 and with SNB-78 was > 100 µM (inactive) throughout.

For `COc1ccc2oc3c4c2c1CCC4CCC3=O` (stereo not drawn), the GI50 in the test with DMS-114, with DMS-273, in the test on M19-MEL, with RXF 631, with SNB-78 and with XF498 was > 100 µM (inactive) throughout.

`CC1C2=CC=C(O2)C(C)(C)C2=CC=C(O2)C(C)(C)C2=CC=C(O2)C(C)(C)C2=CC=C1O2`: the GI50 in the test with DMS-273, in the test on HOP-18, in the test on KM-20L2, in the test with M19-MEL, in the test on SNB-78 and in the test on XF498 was > 100 µM (inactive) throughout.

Regarding `O=[N+]([O-])c1cccc(C2=NOC3C4CCC(C4)C23)c1` (stereo not drawn), the GI50 in the test on DLD-1, in the test on DMS-114, in the test with DMS-273, in the test with HOP-18, with M19-MEL and in the test with RXF 631 was > 100 µM (inactive) each time.

Consider `O=C1C(Cl)=C(N2CCN(C3=C(Cl)C(=O)c4ccccc4C3=O)CC2)C(=O)c2ccccc21`, for which the GI50 with DLD-1 was 0.428 µM (active); with DMS-114 it was 1.34 µM (inactive); with DMS-273 it was 2.14 µM (inactive); with KM-20L2 it was 3.78 µM (inactive); in the test with M19-MEL it was 1.53 µM (inactive); in the test with RXF 631, 1.85 µM (inactive). The figures for the GI50 in the test on SNB-78 and in the test with XF498 were 0.61 µM (active) and 1.36 µM (inactive), respectively.

As to `CC1=C(C(=O)Nc2cccc(Cl)c2)C(c2ccccc2F)C(C(=O)Nc2cccc(Cl)c2)=C(C)N1`, the GI50 is 10.4 µM (inactive) in the test on DLD-1; 6.32 µM (inactive) in the test on DMS-114; 11.9 µM (inactive) with DMS-273; 7.46 µM (inactive) with KM-20L2; 11.6 µM (inactive) in the test with M19-MEL; 10.1 µM (inactive) in the test on RXF 631. Besides, in the test on SNB-78, the GI50 is 18.7 µM (inactive).

For the molecule `N#CC1(C#N)C(C#N)(C#N)C12CCCCCC2`, the GI50 in the test on DLD-1 is 4.1 µM (inactive); in the test on DMS-114, 21.1 µM (inactive); in the test on DMS-273, 22.4 µM (inactive); with HOP-18, 16.4 µM (inactive); with KM-20L2, 16.6 µM (inactive); in the test with M19-MEL, 20.5 µM (inactive). For the same molecule, the GI50 in the test on SNB-78 is 13.3 µM (inactive).

As to `O=C(O)CNS(=O)(=O)c1ccc(NCc2ccccc2)cc1`, the GI50 with DLD-1, in the test on DMS-114, in the test with DMS-273, with HOP-18, in the test with KM-20L2 and in the test with M19-MEL was > 100 µM (inactive) throughout. The GI50 in the test with SNB-78 and with XF498 was > 100 µM (inactive) in each case.

For `CN(C)CCNC(=O)c1cccc2c1nc(-c1ccncc1)c1ccccc12`, the GI50 is 2.38 µM (inactive) with DLD-1; 2.84 µM (inactive) in the test with DMS-114; 0.767 µM (active) in the test on DMS-273; 9.91 µM (inactive) with HOP-18; 2.82 µM (inactive) in the test with M19-MEL; 5.9 µM (inactive) in the test on SNB-78.

Turning to `CC1=NN(c2ccccc2)C(=O)C1=C1SCCS1`, the GI50 in the test with DLD-1 is 32.6 µM (inactive); in the test on DMS-114, > 46.3 µM (inactive); in the test on DMS-273 it was > 58.3 µM (inactive); in the test with HOP-18, 36.3 µM (inactive); in the test with KM-20L2 it was > 65.6 µM (inactive); with M19-MEL, 41.8 µM (inactive). For the same molecule, the GI50 in the test with RXF 631 is > 89.7 µM (inactive); in the test with SNB-78, > 100 µM (inactive); with XF498 it was 32.7 µM (inactive).

As to `Oc1cc(-c2ccccn2)nc2cccc(F)c12`, the GI50 with DLD-1, in the test with DMS-114, in the test on HOP-18, in the test on KM-20L2, in the test on M19-MEL and in the test with RXF 631 was > 100 µM (inactive) throughout. For the same molecule, in the test with SNB-78, the GI50 was > 100 µM (inactive).

Turning to `C#CCN(N=O)C(=O)NC(CCCCNC(=O)OCc1ccccc1)C(=O)OCc1ccccc1` (stereo not drawn), the GI50 with DLD-1 is 20.1 µM (inactive); in the test with DMS-114, 19.8 µM (inactive); with DMS-273 it was 43.9 µM (inactive); with HOP-18, 20 µM (inactive); in the test on KM-20L2 it was 54.6 µM (inactive); in the test on M19-MEL it was 34.2 µM (inactive). In addition, the GI50 in the test on SNB-78 was 34.1 µM (inactive).

Regarding `CCC1CN2CCc3c([nH]c4ccccc34)C2C[C@@H]1CC(=O)N(C)C` (stereo partly drawn), the GI50 in the test with DLD-1, in the test on DMS-114, in the test on DMS-273, with HOP-18, in the test on KM-20L2 and in the test on M19-MEL was > 100 µM (inactive) in each case. In addition, the GI50 in the test with SNB-78 and with XF498 was > 100 µM (inactive) in each case.

Take `COc1ccc(/C=C\c2cc(OC)c3c(c2)OCO3)c(O)c1O`: the GI50 is 6.28 µM (inactive) with DLD-1; 2.88 µM (inactive) with DMS-114; 20 µM (inactive) in the test on DMS-273; 20.6 µM (inactive) in the test with HOP-18; 23.2 µM (inactive) in the test on KM-20L2; 6.19 µM (inactive) with M19-MEL. For the same molecule, the values for the GI50 with SNB-78 and in the test on XF498 were 3.94 µM (inactive) and 11.1 µM (inactive), respectively.

On to `CCCN1CC=CCC1`, for which the GI50 in the test on DLD-1, with DMS-114, in the test with HOP-18, in the test with KM-20L2, with M19-MEL and in the test on XF498 was > 100 µM (inactive) in each case.
